Where a name gives a salt, the structure may show the parent alone.
Target: T1, recombinant human MCHR1-receptors (Homo sapiens, UniProt Q99705)
T1 construct: expressed in transfected cells
Assay: MCHR filter binding assay (competition binding)
Settings: membranes from CHO-K1 cells expressing human MCHR1; 0.2 nM [Phe13,[125I]Tyr19]-MCH; read-out: IC50 (nM), in vitro activity (binding assay)
Method: MCHR Filter Binding Assay
Competition binding assays were performed using membranes from CHO-K1 cells stably expressing the recombinant human MCHR1-receptors. Binding reactions (90 μl, final volume) were carried out at rt by incubating 2.8 μg membranes with 0.2 nM [Phe^13,[^125I]Tyr^19]-MCH (PerkinElmer) in the absence or presence of various concentrations of competing ligands in binding buffer (50 mM HEPES, 2.5 mM CaCl2, 0.05 mM BSA, 1 mM phenanthroline, 0.03 mM Triton X-100). [Phe^13,[^125I]Tyr^19]-MCH was added 15 min following the addition of unlabeled competing ligands, and the reactions incubated for a 1 h period. The reactions were terminated by rapid filtration over pretreated 96-well filter plates (Millipore; MultiScreen 0.65 μm GFB filter plates). Filter Plates were treated for 12 h at 4° C. with a 0.5% polyvinylpyrrolidone solution containing 1% BSA and 0.1% Tween 20, and then washed with an ice-cold solution of 10 mM Tris, pH 7.5 (5×200 μl). The plates were drained following a 5 min incubation with binding buffer (200 μl) at rt. Following termination of the binding reactions, the filters were washed with ice-cold binding buffer (4×200 μl). The filter plates were air dried for 30 min, scintillation cocktail (60 μl) added to each well and radioactivity bound to the plates was determined using a Micro-beta plate reader (Wallace/PerkinElmer).

T1 sequence (Q99705 whole entry): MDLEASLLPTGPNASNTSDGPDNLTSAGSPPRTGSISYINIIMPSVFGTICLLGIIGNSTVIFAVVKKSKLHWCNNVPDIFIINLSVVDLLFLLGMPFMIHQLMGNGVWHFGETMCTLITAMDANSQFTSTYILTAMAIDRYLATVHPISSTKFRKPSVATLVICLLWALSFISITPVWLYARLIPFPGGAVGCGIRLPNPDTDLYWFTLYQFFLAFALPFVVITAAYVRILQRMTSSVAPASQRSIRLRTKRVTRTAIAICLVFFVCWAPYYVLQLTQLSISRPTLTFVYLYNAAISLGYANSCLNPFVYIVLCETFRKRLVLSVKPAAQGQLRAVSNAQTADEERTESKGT

Compound | IC50 [nM]
COC(=O)Nc1ccc2c(c1)C[C@H](CN1CCC(n3c(C(C)(C)C)nc4cc(C)ccc43)CC1)C2 [Example 40, {(R)-2-[4-(2-tert-Butyl-5-methyl-benzoimidazol-1-yl)-piperidin-1-ylmethyl]-indan-5-yl}-carbamic acid methyl ester] | < 20
CO[C@@H]1CN(C[C@@H]2Cc3ccc(Cl)cc3C2)CC[C@H]1n1c(C(C)(C)O)nc2cc(C)ccc21 [Example 113, 2-{1-[(3R,4R)-1-((R)-5-Chloro-indan-2-ylmethyl)-3-methoxy-piperidin-4-yl]-5-methyl-1H-benzoimidazol-2-yl}-propan-2-ol] | < 20
CCc1nc2cc(C)ccc2n1C1CCN(C[C@@H]2Cc3ccc(NC(=O)C4CC4)cc3C2)CC1OC (stereo partly drawn) [Example 72, Cyclopropanecarboxylic acid {(R)-2-[4-(2-ethyl-5-methyl-benzoimidazol-1-yl)-3-methoxy-piperidin-1-ylmethyl]-indan-5-yl}-amide] | 20 to 200
CO[C@H]1CN(CC2Cc3cc(Cl)c(Cl)cc3C2)CC[C@@H]1n1c(C(C)C)nc2cc(C)ccc21 [Example 95, 1-[(3S,4S)-1-(5,6-Dichloro-indan-2-ylmethyl)-3-methoxy-piperidin-4-yl]-2-isopropyl-5-methyl-1H-benzoimidazole; dihydrochloride] | 200 to 5000
Cc1ccc2c(c1)ncn2C1CCN(CC2Cc3ccc(NC(=O)C(C)C)cc3C2)CC1 (centres unmarked) [Example 78, N-{2-[4-(5-Methyl-benzoimidazol-1-yl)-piperidin-1-ylmethyl]-indan-5-yl}-isobutyramide] | 20 to 200
Cc1ccc2c(c1)ncn2C1CCN(CC2Cc3cccc(Cl)c3C2)CC1 (centres unmarked) [Example 102, 1-[1-(4-Chloro-indan-2-ylmethyl)-piperidin-4-yl]-5-methyl-1H-benzoimidazole; compound with trifluoroacetic acid] | 200 to 5000
Cc1ccc2c(c1)CC(CN1CCC(n3c(C(C)(C)F)nc4cc(C)ccc43)CC1)C2 (centres unmarked) [Example 105, 2-(1-Fluoro-1-methyl-ethyl)-5-methyl-1-[1-(5-methyl-indan-2-ylmethyl)-piperidin-4-yl]-1H-benzoimidazole] | 200 to 5000
CO[C@@H]1CN(C[C@H]2Cc3ccc(Cl)cc3C2)CC[C@H]1n1c(C(C)(C)O)nc2cc(C)ccc21 [Example 112, 2-{1-[(3R,4R)-1-((S)-5-Chloro-indan-2-ylmethyl)-3-methoxy-piperidin-4-yl]-5-methyl-1H-benzoimidazol-2-yl}-propan-2-ol] | 20 to 200
CO[C@@H]1CN(C[C@H]2Cc3ccc(Br)cc3C2)CC[C@H]1n1c(C(C)(C)O)nc2cc(C)c(F)cc21 [Example 123, 2-{1-[(3R,4R)-1-((S)-5-Bromo-indan-2-ylmethyl)-3-methoxy-piperidin-4-yl]-6-fluoro-5-methyl-1H-benzoimidazol-2-yl}-propan-2-ol] | < 20
COC1CN(C[C@@H]2Cc3ccc(NC(=O)C4CC4)cc3C2)CCC1n1c(C(C)C)nc2cc(C)ccc21 (stereo partly drawn) [Example 64, Cyclopropanecarboxylic acid {(R)-2-[4-(2-isopropyl-5-methyl-benzoimidazol-1-yl)-3-methoxy-piperidin-1-ylmethyl]-indan-5-yl}-amide] | < 20
CO[C@@H]1CN(C[C@H]2Cc3ccc(NC(=O)C(C)C)cc3C2)CC[C@H]1n1c(C)nc2cc(C)ccc21 [Example 39, N-{(S)-2-[(3R,4R)-4-(2,5-Dimethyl-benzoimidazol-1-yl)-3-methoxy-piperidin-1-ylmethyl]-indan-5-yl}-isobutyramide; dihydrochloride] | < 20
Cc1cc2nc(C(C)(C)O)n(C3CCN(CC4Cc5ccc(F)cc5C4)CC3)c2cc1F (centres unmarked) [Example 13, 2-{6-Fluoro-1-[1-(5-fluoro-indan-2-ylmethyl)-piperidin-4-yl]-5-methyl-1H-benzoimidazol-2-yl}-propan-2-ol] | < 20
CO[C@@H]1CN(CC2Cc3ccc(C)cc3C2)CC[C@H]1n1c(C(C)(C)O)nc2cc(F)ccc21 (stereo partly drawn) [Example 110, 2-{5-Fluoro-1-[(3R,4R)-3-methoxy-1-(5-methyl-indan-2-ylmethyl)-piperidin-4-yl]-1H-benzoimidazol-2-yl}-propan-2-ol] | 20 to 200
Cc1ccc2c(c1)nc(C)n2C1CCN(C[C@@H]2Cc3ccc(NC(=O)C(C)C)cc3C2)CC1O (stereo partly drawn) [Example 27, N-{(R)-2-[4-(2,5-Dimethyl-benzoimidazol-1-yl)-3-hydroxy-piperidin-1-ylmethyl]-indan-5-yl}-isobutyramide; dihydrochloride] | 200 to 5000
Cc1ccc2c(c1)nc(C(C)C)n2[C@@H]1CCN(CC2Cc3ccc(NC(=O)C4CC4)cc3C2)C[C@H]1O (stereo in doubt) [Example 2, Cyclopropanecarboxylic acid {(R)-2-[(3R,4R)-3-hydroxy-4-(2-isopropyl-5-methyl-benzoimidazol-1-yl)-piperidin-1-ylmethyl]-indan-5-yl}-amide] | 20 to 200
CCC(=O)Nc1ccc2c(c1)CC(CN1CC[C@@H](n3c(C)nc4cc(C)ccc43)[C@H](O)C1)C2 (stereo in doubt) [Example 5, N-{(S)-2-[(3R,4R)-4-(2,5-Dimethyl-benzoimidazol-1-yl)-3-hydroxy-piperidin-1-ylmethyl]-indan-5-yl}-propionamide] | 20 to 200
Cc1cc2nc(C(C)(C)O)n(C3CCN(C[C@H]4Cc5ccc(Br)cc5C4)CC3)c2cc1F [Example 124, 2-{1-[1-((S)-5-Bromo-indan-2-ylmethyl)-piperidin-4-yl]-6-fluoro-5-methyl-1H-benzoimidazol-2-yl}-propan-2-ol] | < 20
CO[C@H]1CN(CC2Cc3cc(F)c(F)cc3C2)CC[C@@H]1n1c(C)nc2cc(C)ccc21 [Example 101, 1-[(3S,4S)-1-(5,6-Difluoro-indan-2-ylmethyl)-3-methoxy-piperidin-4-yl]-2,5-dimethyl-1H-benzoimidazole] | 20 to 200
{(R)-2-[4-(2-tert-Butyl-5-methyl-benzoimidazol-1-yl)-piperidin-1-ylmethyl]-indan-5-yl}-methyl-amine [Example 56] | 200 to 5000
CO[C@@H]1CN(C[C@H]2Cc3ccc(NC(=O)C(C)C)cc3C2)CC[C@H]1n1c(C)nc2cc(C)ccc21 [Example 43, N-{(S)-2-[(3R,4R)-4-(2,5-Dimethyl-benzoimidazol-1-yl)-3-methoxy-piperidin-1-ylmethyl]-indan-5-yl}-isobutyramide] | 20 to 200
Cc1ccc2c(c1)nc(C(C)(C)O)n2C1CCN(CC2Cc3ccc(Cl)cc3C2)CC1 (centres unmarked) [Example 14, 2-{1-[1-(5-Chloro-indan-2-ylmethyl)-piperidin-4-yl]-5-methyl-1H-benzoimidazol-2-yl}-propan-2-ol] | < 20
Cc1ccc2c(c1)nc(C)n2C1CCN(CC2=Cc3ccc(NC(=O)C(C)C)cc3C2)CC1 [Example 53, N-{2-[4-(2,5-Dimethyl-benzoimidazol-1-yl)-piperidin-1-ylmethyl]-3H-inden-5-yl}-isobutyramide] | 20 to 200
CO[C@H]1CN(C[C@@H]2Cc3ccc(Br)cc3C2)CC[C@@H]1n1c(C(C)(C)O)nc2cc(C)ccc21 [Example 116, 2-{1-[(3S,4S)-1-((R)-5-Bromo-indan-2-ylmethyl)-3-methoxy-piperidin-4-yl]-5-methyl-1H-benzoimidazol-2-yl}-propan-2-ol] | 20 to 200
CO[C@@H]1CN(CC2Cc3ccccc3C2)CC[C@H]1n1c(C(C)C)nc2cc(C)ccc21 [Example 24, 1-((3R,4R)-1-Indan-2-ylmethyl-3-methoxy-piperidin-4-yl)-2-isopropyl-5-methyl-1H-benzoimidazole] | 20 to 200
CO[C@@H]1CN(C[C@@H]2Cc3ccc(NC(=O)C4CC4)cc3C2)CC[C@H]1n1c(C)nc2cc(F)ccc21 [Example 28, Cyclopropanecarboxylic acid {(R)-2-[(3R,4R)-4-(5-fluoro-2-methyl-benzoimidazol-1-yl)-3-methoxy-piperidin-1-ylmethyl]-indan-5-yl}-amide; dihydrochloride] | 200 to 5000
CO[C@H]1CN(C[C@@H]2Cc3ccc(NC(=O)C(F)F)cc3C2)CC[C@@H]1n1c(C(C)C)nc2cc(C)ccc21 [Example 67, 2,2-Difluoro-N-{(R)-2-[(3S,4S)-4-(2-isopropyl-5-methyl-benzoimidazol-1-yl)-3-methoxy-piperidin-1-ylmethyl]-indan-5-yl}-acetamide] | < 20
CO[C@H]1CN(C[C@@H]2Cc3ccc(NC(=O)C(C)C)cc3C2)CC[C@@H]1n1c(C2CC2)nc2cc(C)ccc21 [Example 65, N-{(R)-2-[(3S,4S)-4-(2-Cyclopropyl-5-methyl-benzoimidazol-1-yl)-3-methoxy-piperidin-1-ylmethyl]-indan-5-yl}-isobutyramide] | < 20
Cc1ccc2c(c1)nc(Cl)n2C1CCN(C[C@@H]2Cc3ccc(N)cc3C2)CC1 [Example 31, (R)-2-[4-(2-Chloro-5-methyl-benzoimidazol-1-yl)-piperidin-1-ylmethyl]-indan-5-ylamine; dihydrochloride] | 200 to 5000
CO[C@@H]1CN(CC2Cc3cccc(Cl)c3C2)CC[C@H]1n1c(C)nc2cc(C)ccc21 (stereo partly drawn) [Example 97, 1-[(3R,4R)-1-(4-Chloro-indan-2-ylmethyl)-3-methoxy-piperidin-4-yl]-2,5-dimethyl-1H-benzoimidazole] | 20 to 200

— US7803816B2, “MCH receptor antagonists” (Hoffmann-La Roche Inc., priority 2005, dated 2010)
